Measurements taken from patent US7541495B2, “para-alkyl-substituted N-(4-hydroxy-3-methoxy-benzyl)-cinnamamides, pharmaceutical compositions and uses thereof” (Gruenenthal GmbH, priority 2004, dated 2009).

What was measured:
[1] = biological target: T1, rat vanilloid receptor 1 (VR1/TRPV1) (Rattus norvegicus, UniProt O35433); assay: FLIPR Ca2+ influx functional study on rat vanilloid receptor 1; format: cell-based; conditions: CHO K1 cells transfected with rat VR1; for Emax at 10 µM: test substance 10 μM, Ca2+ signal relative to 10 μM capsaicin, read-out: VR1 (Rat) (% Stimulation compared with 10 μM CP)
T1 construct: expressed in transfected cells; host or cells: CHO K1 cells (ECACC)
T1 sequence (O35433 whole entry): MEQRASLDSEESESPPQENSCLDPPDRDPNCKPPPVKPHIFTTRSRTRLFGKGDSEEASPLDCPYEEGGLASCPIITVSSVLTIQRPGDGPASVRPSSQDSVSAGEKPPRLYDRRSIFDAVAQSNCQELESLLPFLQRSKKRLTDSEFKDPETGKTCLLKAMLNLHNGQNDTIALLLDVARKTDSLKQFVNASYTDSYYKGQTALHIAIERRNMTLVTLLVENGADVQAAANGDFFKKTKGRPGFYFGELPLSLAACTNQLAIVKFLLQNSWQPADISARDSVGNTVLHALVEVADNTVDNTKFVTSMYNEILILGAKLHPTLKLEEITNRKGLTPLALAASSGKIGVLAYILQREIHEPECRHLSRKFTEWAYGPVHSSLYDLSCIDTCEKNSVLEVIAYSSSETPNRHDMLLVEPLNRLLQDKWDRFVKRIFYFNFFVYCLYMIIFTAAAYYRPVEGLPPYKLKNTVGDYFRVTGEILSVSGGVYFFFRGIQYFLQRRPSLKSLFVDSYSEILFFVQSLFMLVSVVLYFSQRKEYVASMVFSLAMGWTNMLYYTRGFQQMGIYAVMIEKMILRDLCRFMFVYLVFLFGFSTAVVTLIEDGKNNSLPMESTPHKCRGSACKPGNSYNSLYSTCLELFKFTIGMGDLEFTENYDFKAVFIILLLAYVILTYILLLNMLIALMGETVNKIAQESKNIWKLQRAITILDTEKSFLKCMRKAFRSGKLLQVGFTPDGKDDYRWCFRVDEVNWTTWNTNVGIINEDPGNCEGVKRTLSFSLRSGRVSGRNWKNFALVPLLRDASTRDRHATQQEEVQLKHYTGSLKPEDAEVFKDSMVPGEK
Excerpt: (§1) 1. Functional Study on the Vanilloid Receptor 1 (VR1/TRPV1 Receptor)
(§2) The agonist activity or antagonist activity of the substances to be tested on the vanilloid receptor 1 (VR1/TRPV1) of the species human and rat can be determined using the following assay. According to this assay, the Ca^2+ influx through the channel is quantified by means of a Ca^2+-sensitive dye (type Fluo-4, Molecular Probes Europe BV, Leiden, Netherlands) in the Fluorescent Imaging Plate Reader (FLIPR, Molecular Devices, Sunnyvale, USA).
(§3) Chinese hamster ovary cells (CHO K1 cells, European Collection of Cell Cultures (ECACC), England) are stably transfected with the human or rat vanilloid receptor 1 (VR1) gene. For functional studies, these cells are plated out in a density of 25,000 cells/well on poly-D-lysine-coated, black 96-well plates having a clear base (BD Biosciences, Heidelberg, Germany). The cells are incubated overnight at 37° C. and 5% CO2 in culture medium (Nutrient Mixture Ham's F12, Gibco Invitrogen GmbH, Karlsruhe, Germany) with 10% v/v of FBS (fetal bovine serum, Gibco Invitrogen GmbH, Karlsruhe, Germany) and 18 μg/ml of L-proline (Gibco Invitrogen GmbH, Karlsruhe, Germany). On the following day, the cells are charged with 2 μM of Fluo-4 and 0.01% v/v of Pluronic F127 (Molecular Probes Europe BV, Leiden, Netherlands) in HBSS buffer solution (Hank's buffered saline solution, Gibco Invitrogen GmbH, Karlsruhe, Germany) for 30 minutes at 37° C. The plates are then washed three times with HBSS buffer solution and, after incubation for a further 15 minutes at room temperature, used in the FLIPR assay for Ca^2+ measurement. The Ca^2+-dependent fluorescence is measured before and after the addition of test substances (λex=488 nm, λem=540 nm). Quantification is effected by measuring the highest fluorescence intensity (FC, fluorescence counts) over time.
(§4) The FLIPR protocol consists of two additions of test substance. Test substances (10 μM) are first pipetted onto the cells and the Ca^2+ influx is compared with the control (capsaicin 10 μM). This gives the percentage activation, based on the Ca^2+ signal after the addition of 10 μM of capsaicin (CP). After 5 minutes' incubation, 100 nM of capsaicin are applied and the influx of Ca^2+ is likewise determined. Desensitizing agonists and antagonists lead to suppression of the Ca^2+ influx. The percentage inhibition compared with the maximum achievable inhibition is calculated using 10 μM of capsaicin. In order to determine the EC50 values, the substances are added in various concentrations. Determinations are carried out in triplicate (n=3) and these are repeated in at least three independent experiments (N=4).
(§5) The agonist activity or antagonist activity was determined on human and rat vanilloid receptor 1 (VR1/TRPV1 receptor) using the above-described FLIPR assay.

[2] = biological target: T2, human vanilloid receptor 1 (VR1/TRPV1) (Homo sapiens, UniProt Q8NER1); assay: FLIPR Ca2+ influx functional study on human vanilloid receptor 1; format: cell-based; conditions: CHO K1 cells transfected with human VR1; for Emax at 10 µM: test substance 10 μM, Ca2+ signal relative to 10 μM capsaicin, read-out: VR1 (Human) (% Stimulation compared with 10 μM CP)
T2 construct: expressed in transfected cells; host or cells: CHO K1 cells (ECACC)
T2 sequence (Q8NER1 whole entry): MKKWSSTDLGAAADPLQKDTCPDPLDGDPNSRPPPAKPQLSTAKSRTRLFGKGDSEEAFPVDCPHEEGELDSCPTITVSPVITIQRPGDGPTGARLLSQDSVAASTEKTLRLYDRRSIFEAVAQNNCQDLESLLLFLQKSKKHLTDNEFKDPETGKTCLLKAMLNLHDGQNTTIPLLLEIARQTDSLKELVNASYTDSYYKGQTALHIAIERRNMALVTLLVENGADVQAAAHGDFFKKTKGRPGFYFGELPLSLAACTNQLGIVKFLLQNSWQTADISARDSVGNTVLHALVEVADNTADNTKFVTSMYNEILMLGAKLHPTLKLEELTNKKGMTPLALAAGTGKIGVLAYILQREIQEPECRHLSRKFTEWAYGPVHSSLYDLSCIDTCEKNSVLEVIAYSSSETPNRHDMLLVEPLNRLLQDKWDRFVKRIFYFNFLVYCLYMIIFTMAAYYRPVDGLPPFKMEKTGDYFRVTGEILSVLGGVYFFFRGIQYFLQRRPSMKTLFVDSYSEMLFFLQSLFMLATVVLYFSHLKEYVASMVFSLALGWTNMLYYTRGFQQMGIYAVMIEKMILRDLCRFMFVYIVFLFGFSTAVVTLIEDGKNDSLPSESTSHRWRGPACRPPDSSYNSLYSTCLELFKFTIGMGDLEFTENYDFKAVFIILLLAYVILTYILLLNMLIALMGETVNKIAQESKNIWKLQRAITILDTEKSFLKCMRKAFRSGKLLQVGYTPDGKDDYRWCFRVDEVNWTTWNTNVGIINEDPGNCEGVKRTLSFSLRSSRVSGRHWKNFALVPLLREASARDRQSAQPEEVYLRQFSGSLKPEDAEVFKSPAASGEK
Excerpt: as §1, §2, §3, §4, §5

[3] = test system: phenylquinone-induced writhing in mice; assay: Phenylquinone-induced writhing test on mice; format: in vivo, male NMRI mice; conditions: phenylquinone i.p. 10 min after dose
Method: 2. Analgesic Test Using the Writhing Test on Mice
The analysis of analgesic activity in the compounds of the invention of formula is carried out using the phenylquinone-induced writhing assay in mice, modified as described in the article by I. C. Hendershot and J. Forsaith (1959) in J. Pharmacol. Exp. Ther. 125, 237-240. The relevant description is incorporated herein by reference and is to be regarded as part of the present disclosure.
For the present purpose, male NMRI mice are used having a weight of from 25 to 30 g. Groups of 10 animals per substance dose received, 10 minutes after an intravenous dose of test substances, an intraperitoneal administration of 0.3 ml/mouse of a 0.02% strength aqueous solution of phenylquinone(phenylbenzoquinone, obtainable from Sigma, Deisenhofen; solution produced with the addition of 5% of ethanol and storage in a water bath at 45° C.). The animals were placed individually in observation cages. Using a pushbutton counter, the number of pain-induced stretching movements (so-called writhing reactions=straightening of the body accompanied by stretching of the rear extremities) was counted over a period of from 5 to 20 minutes following the administration of phenylquinone. The control is provided by animals receiving only physiological saline. […]

| EC50 ([1]; FLIPR Ca2+ influx) | Emax at 10 µM [1] | EC50 ([2]; FLIPR Ca2+ influx) | Emax at 10 µM [2] | Compound | Reduction of Nociceptive Behavior Relative to Controls ([3]; 0.1 mg/kg i.v.) | Reduction of Nociceptive Behavior Relative to Controls ([3]; 0.316 mg/kg i.v.) |
| --- | --- | --- | --- | --- | --- | --- |
| 0.129 nM | 106% | 0.147 nM | 115% | COc1cc(CNC(=O)/C=C/c2ccc(C(C)(C)C)cc2)ccc1O [Example 4, para-tert.-Butyl-trans-N-(4-hydroxy-3-methoxybenzyl)-cinnamic acid amide] | 63% |  |
|  | 126% |  | 97% | CCCCCCCCc1ccc(/C=C/C(=O)NCc2ccc(O)c(OC)c2)cc1 [Example 9, para-octyl-trans-N-(4-hydroxy-3-methoxybenzyl)-cinnamic acid amide] | 47% |  |
|  | 92% |  | 56% | COc1cc(CNC(=O)/C=C/c2ccc(C)cc2)ccc1O [Example 1, para-methyl-trans-N-(4-hydroxy-3-methoxybenzyl)-cinnamic acid amide] |  |  |
|  | 141% |  | 103% | COc1cc(CNC(=O)/C=C/c2ccc(CC(C)C)cc2)ccc1O [Example 6, para-iso-butyl-trans-N-(4-hydroxy-3-methoxybenzyl)-cinnamic acid amide] | 70% |  |
|  | 97% |  | 71% | COc1cc(CNC(=O)/C=C/c2ccc(C(C)C)cc2)ccc1O [Example 3, para-isopropyl-trans-N-(4-hydroxy-3-methoxybenzyl)-cinnamic acid amide] | 52% |  |
|  | 119% |  | 102% | CCCc1ccc(/C=C/C(=O)NCc2ccc(O)c(OC)c2)cc1 [Example 5, para-propyl-trans-N-(4-hydroxy-3-methoxybenzyl)-cinnamic acid amide] |  | 55% |
|  | 132% |  | 110% | CCCCc1ccc(/C=C/C(=O)NCc2ccc(O)c(OC)c2)cc1 [Example 8, para-butyl-trans-N-(4-hydroxy-3-methoxybenzyl)-cinnamic acid amide] |  |  |
|  | 84% |  | 71% | CCc1ccc(/C=C/C(=O)NCc2ccc(O)c(OC)c2)cc1 [Example 2, para-ethyl-trans-N-(4-hydroxy-3-methoxybenzyl)-cinnamic acid amide] | 54% |  |
|  | 142% |  | 102% | COc1cc(CNC(=O)/C=C/c2ccc(CC(C)(C)C)cc2)ccc1O [Example 7, para-neo-pentyl-trans-N-(4-hydroxy-3-methoxybenzyl)-cinnamic acid amide] |  |  |
